From paper PMC11148080, “Ru(II)-based complexes containing 2-thiouracil derivatives suppress liver cancer stem cells by targeting NF-κB and Akt/mTOR signaling” (Cell Death Discovery, 2024)

Assays:
Type in all cases: cell-based, human
HepG2 cells [1] = test: Trypan blue exclusion assay; conditions: HepG2, 72 h
Protocol: The number of viable cells (unstained cells) and nonviable cells (trypan blue-stained cells) was counted by the trypan blue exclusion test. Briefly, 90 μL of cell suspension was selected, and 10 μL of trypan blue (0.4%) was added. A hemocytometer was used to fill the aliquot of the homogenized cell suspension, and the cells were counted under a light microscope.

HepG2 cells [2] = test: Transwell migration assay; conditions: same concentrations (0.5 μM complex 1, 0.3 μM complex 2), 24 h
Protocol: Transwell plates were used for the cell migration assay, as previously described. The cells were initially incubated in serum-free media for 24 h. We used uncoated cell culture inserts in 6-well plates ([…]; Corning, USA). The upper chamber received 1.5 mL of serum-free medium, whereas the bottom chamber received 2 mL of medium containing 20% FBS. Cotton swabs were used to remove cells that remained in the top chamber after 24 h. The cells on the bottom surface of the membrane were fixed in 4% paraformaldehyde and stained with 0.5% crystal violet. The cells were imaged and counted using an optical microscope (Leica, DMI8).

HepG2 cells [3] = test: Mitochondrial transmembrane potential (rhodamine 123); conditions: HepG2, 24 h
Protocol: For apoptosis detection, cell viability was quantified using Annexin V-FITC/PI (FITC Annexin V Apoptosis Detection Kit I, BD Biosciences, San Jose, CA, USA) according to the manufacturer’s instructions. The cells were also stained with rhodamine 123 (5 μg/mL, Sigma Aldrich Co.) for 15 min at 37 °C in the dark to assess the mitochondrial transmembrane potential. After the cells were washed, they were incubated in saline for 30 min in the dark at 37 °C and analyzed by flow cytometry.

HepG2 cells [4] = test: May-Grunwald-Giemsa staining morphology; conditions: 24, 48, 72 h
Protocol: Cells were grown on coverslips and stained with May-Grunwald-Giemsa. Subsequently, we employed light microscopy to examine and analyze morphological changes.

HepG2 cells [5] = test: Wound healing assay; conditions: 72 h; 0.5 μM complex 1, 0.3 μM complex 2 (noncytotoxic)
Protocol: Wound healing assays were performed as previously described. The cells were grown to 80–90% confluency in 12-well plates, and a wound was formed by dragging a plastic pipette tip over the cell surface. The remaining cells were washed three times with saline solution to eliminate cell debris before being cultured in serum-free media and treated with drugs. After 0 and 72 h of incubation, the migrating cells in front of the wound were photographed using an optical microscope (Nikon, TS 100). The wound area was calculated using ImageJ software from the National Institutes of Health (NIH, USA).

HepG2 tumorspheres = test: HepG2 tumorspheres; conditions: for HepG2 tumorsphere growth: 3D tumorspheres; for cell death in HepG2 tumorspheres (AO/PI): 48 h, 10 μM complex 1, 5 μM complex 2
Protocol: HepG2 cells were seeded at a low cell density (1000 cells/well in 2 mL) in 24-well low-adhesion plates (Corning, USA) using serum-free DMEM-F12 supplemented with 20 ng/mL EGF (PeproTech, USA), 20 ng/mL bFGF (PeproTech, USA), and B27 supplement (Invitrogen, Carlsbad, CA, USA). After 5 days of incubation (to allow spheroid formation), the cells were treated with 20, 10, 5, 2.5 or 1.25 µM of each complex. The cells were photographed after 0, 24, and 48 h of treatment using an optical microscope (Leica, DMI8). In a new set of experiments, cells were treated with 10 µM complex 1 or 5 µM complex 2 for 48 h, stained with acridine orange (1 μg/mL) plus PI (1 μg/mL) and analyzed by a Leica TCS SP8 confocal microscope (Leica Microsystems, Wetzlar, HE, Germany).

HepG2 cells [6] = test: PARP (Asp214) cleavage by flow cytometry; conditions: HepG2, 24 h; 8 μM complex 1, 6 μM complex 2
Protocol: (§1) To stain intracellular proteins, the cells were harvested and resuspended in 0.5-1 mL of 4% formaldehyde for 10 min at 37 °C. The tube was then placed on ice for 1 min, after which the cells were prechilled and permeabilized using a sequence of 100% (30 min) to 90% (30 min) methanol with gentle mixing. After washing with incubation buffer (0.5% bovine serum albumin in PBS), primary antibodies were added and incubated for 1 h at room temperature. Finally, the cells were washed with PBS, and flow cytometry was used to measure cell fluorescence.

HepG2 cells [7] = test: p62/SQSTM1 expression (autophagy); conditions: HepG2, 24 h; 8 μM complex 1, 6 μM complex 2
Protocol: as §1
The cells were grown on coverslips in 24-well plates and exposed to the drugs for 24 h. The cells were then washed twice with saline solution, permeabilized with 0.5% Triton X-100, treated with RNase (10 μg/mL), and incubated overnight with a primary fluorochrome-conjugated antibody (for antibody details, see Table S5). The next day, the cells were washed with saline solution and mounted using Fluoromount-G with DAPI (Invitrogen, Thermo Fisher Scientific). The cells were examined using a Leica TCS SP8 confocal microscope (Leica Microsystems, Wetzlar, HE, Germany).

HepG2 cells [8] = test: Colony-forming assay; conditions: concentration- and time-dependent; 24, 48, 72 h treatment
Protocol: A total of 500 cells were plated in 6-well plates with 4 mL of complete medium and treated with the drugs for 24, 48, or 72 h to determine clonogenic potential. The medium was subsequently replaced with fresh drug-free medium, and the plates were cultivated for 14 days. After that, the cells were fixed in methanol and stained with 0.5% crystal violet. Using an optical microscope (Nikon, TS100), the number of colonies with >50 cells was counted.

HepG2 cells [9] = test: CD133 and CD44 expression by flow cytometry; conditions: 24 h; for percentage of HepG2 CD133-positive cells: 8 μM complex 1 or 6 μM complex 2
Protocol: To stain the cell surface proteins, the cells were washed with an incubation buffer (0.5% bovine serum albumin in PBS), and then antibodies were added and incubated for 1 h at room temperature. The cells were then washed with PBS, and the fluorescence signal was measured by flow cytometry. CD133 and CD44 were quantified in YO-PRO-1 (Sigma‒Aldrich Co.) negative cells.
For all flow cytometry analyses, cellular fluorescence was measured using a BD LSRFortessa cytometer, BD FACSDiva software (BD Biosciences) and FlowJo software 10 (FlowJo LLC; Ashland, OR, USA). A minimum of 10,000 events were obtained per sample for intracellular staining, and a minimum of 30,000 events per sample were acquired for cell surface protein staining. Doublets were removed using FSC-A vs FCS-H and SCC-A vs SCC-H. Cellular debris was excluded from the analysis.

With `F[P-](F)(F)(F)(F)F.O=c1cc[nH]c([S][Ru+])n1.c1ccc(-c2ccccn2)nc1.c1ccc(P(c2ccccc2)c2ccccc2)cc1.c1ccc(P(c2ccccc2)c2ccccc2)cc1` [Complex 1, trans-[Ru(2TU)(PPh3)2(bipy)]PF6] the “reduction of cell viability” value (HepG2 cells [1]; 2 µM) was 46.5%, the “reduction of cell viability” value (HepG2 cells [1]; 4 µM) was 72.2% and the “reduction of cell viability” value (HepG2 cells [1]; 8 µM) was 95.8%. The “motility, transwell cell migration” value (HepG2 cells [2]) was “reduced motility”, the mitochondrial depolarization (HepG2 cells [3]) was “Significant mitochondrial depolarization” and the “cell morphology (May-Grunwald-Giemsa)” value (HepG2 cells [4]) was “cell morphology changes that were associated with apoptosis”. The “HepG2 cell migration, wound healing” value (HepG2 cells [5]) was “reduced”, the HepG2 tumorsphere growth (HepG2 tumorspheres) was “reduced” and the “cell death in HepG2 tumorspheres (AO/PI)” value (HepG2 tumorspheres) was “caused cell death”. The “PARP (Asp214) cleavage” value (HepG2 cells [6]) was “increased levels”, the “induction of autophagy (p62/SQSTM1 expression)” value (HepG2 cells [7]) was “none of them caused autophagy” and the “clonogenic viability of HepG2 cells” value (HepG2 cells [8]) was “significantly decreased”. For the same molecule, the “percentage of HepG2 CD133-positive cells” value (HepG2 cells [9]) was “reduced”.

In the case of `Cc1cc(=O)nc([S][Ru+])[nH]1.F[P-](F)(F)(F)(F)F.c1ccc(-c2ccccn2)nc1.c1ccc(P(c2ccccc2)c2ccccc2)cc1.c1ccc(P(c2ccccc2)c2ccccc2)cc1` [Complex 2, trans-[Ru(6m2TU)(PPh3)2(bipy)]PF6], the “reduction of cell viability” value (HepG2 cells [1]; 1.5 µM) is reported as 39.4%, the “reduction of cell viability” value (HepG2 cells [1]; 3 µM) is reported as 61.4% and the “reduction of cell viability” value (HepG2 cells [1]; 6 µM) is reported as 93.5%. For the same molecule, the “motility, transwell cell migration” value (HepG2 cells [2]) was “reduced motility”, the mitochondrial depolarization (HepG2 cells [3]) was “Significant mitochondrial depolarization” and the “cell morphology (May-Grunwald-Giemsa)” value (HepG2 cells [4]) was “cell morphology changes that were associated with apoptosis”. For the same molecule, the “HepG2 cell migration, wound healing” value (HepG2 cells [5]) was “reduced”, the HepG2 tumorsphere growth (HepG2 tumorspheres) was “reduced” and the “cell death in HepG2 tumorspheres (AO/PI)” value (HepG2 tumorspheres) was “caused cell death”. For the same molecule, the “PARP (Asp214) cleavage” value (HepG2 cells [6]) was “increased levels”, the “induction of autophagy (p62/SQSTM1 expression)” value (HepG2 cells [7]) was “none of them caused autophagy” and the “clonogenic viability of HepG2 cells” value (HepG2 cells [8]) was “significantly decreased”. The “percentage of HepG2 CD44high cells” value (HepG2 cells [9]; 6 μM complex 2) was “reduced” and the “percentage of HepG2 CD133-positive cells” value (HepG2 cells [9]) was “reduced”.
